The values below come from US8211828B2 (priority 2007, dated 2012).

The first experiment deals with Phytophthora infestans. In words: microbe, parasite or virus in culture. The experiment is classed as cell-based. The following applies: 168 h, read-out: Observed effect (%).
Consider `Cc1nc2ncnn2c(N)c1CCC(C)CC(C)(C)C` (stereo not shown) [7-3], for which the inhibition of growth at 1 ppm was determined as 31%.

In the case of `CCCCCCCCc1c(C)nc2ncnn2c1N` [7-4], the inhibition of growth at 4 ppm worked out at 45%.

Take `CCCCCCCCc1c(CC)nc2nc(N)nn2c1N` [7-5]: the inhibition of growth at 0.25 ppm was found to be 27% and the inhibition of growth at 4 ppm came out at 73%.

For the compound `CCCCCCCCc1c(CCC)nc2ncnn2c1N` [7-9], the inhibition of growth at 1 ppm stood at 20% and the inhibition of growth at 4 ppm is 58%.

With `CC(CCc1c(C(F)(F)F)nc2ncnn2c1N)CC(C)(C)C` (stereo not shown) [7-12], the inhibition of growth at 16 ppm was 66%.

On to `COc1cc(-c2ccccc2NC(=O)c2cn(C)nc2C(F)(F)F)c(F)cc1Cl` [Compound 3-1, N-(2′-fluoro-4′-chloro-5′-methoxybiphenyl-2-yl)-3-trifluoromethyl-1-methyl-1H-pyrazole-4-carboxamide], for which the inhibition of growth at 1 ppm was found to be 0%, the inhibition of growth at 4 ppm came to 0% and the inhibition of growth at 16 ppm amounted to 4%.

`Cn1cc(C(=O)Nc2ccccc2-c2cc(F)c(F)c(F)c2)c(C(F)(F)F)n1` [Compound 3-3, N-(3′,4′,5′-trifluorobiphenyl-2-yl)-3-trifluoromethyl-1-methyl-1H-pyrazole-4-carboxamide]: the inhibition of growth at 0.25 ppm is 0%, the inhibition of growth at 1 ppm worked out at 0% and the inhibition of growth at 4 ppm worked out at 0%.

Turning to `COc1cc(-c2ccccc2NC(=O)c2cn(C)nc2C(F)F)c(F)cc1Cl` [Compound 3-6, N-(2′-fluoro-4′-chloro-5′-methoxybiphenyl-2-yl)-3-difluoromethyl-1-methyl-1H-pyrazole-4-carboxamide], the inhibition of growth at 1 ppm is 0%, the inhibition of growth at 4 ppm worked out at 3% and the inhibition of growth at 16 ppm is 18%.

For `Cn1cc(C(=O)Nc2ccccc2-c2ccc(F)c(F)c2F)c(C(F)(F)F)n1` [Compound 3-7, N-(2′,3′,4′-trifluorobiphenyl-2-yl)-3-trifluoromethyl-1-methyl-1H-pyrazole-4-carboxamide], the inhibition of growth at 1 ppm came to 1% and the inhibition of growth at 4 ppm turned out to be 4%.

In the case of `Cc1cc(-c2ccccc2NC(=O)c2cn(C)nc2C(F)F)c(F)cc1Cl` [Compound 3-8, N-(2′-fluoro-4′-chloro-5′-methylbiphenyl-2-yl)-3-difluoromethyl-1-methyl-1H-pyrazole-4-carboxamide], the inhibition of growth at 4 ppm was 10% and the inhibition of growth at 16 ppm came to 20%.

With `Cn1cc(C(=O)Nc2ccccc2-c2cc(F)c(F)c(F)c2)c(C(F)F)n1` [Compound 3-9, N-(3′,4′,5′-trifluorobiphenyl-2-yl)-3-difluoromethyl-1-methyl-1H-pyrazole-4-carboxamide], the inhibition of growth at 4 ppm came to 9%.

For `Cn1cc(C(=O)Nc2ccccc2-c2cc(F)c(F)cc2F)c(C(F)F)n1` [Compound 3-10, N-(2′,4′,5′-trifluorobiphenyl-2-yl)-3-difluoromethyl-1-methyl-1H-pyrazole-4-carboxamide], the inhibition of growth at 1 ppm was 1% and the inhibition of growth at 4 ppm was 6%.

As for `Cn1cc(C(=O)Nc2ccccc2-c2cc(F)c(F)c(F)c2)c(CF)n1` [Compound 3-11, N-(3′,4′,5′-trifluorobiphenyl-2-yl)-3-fluoromethyl-1-methyl-1H-pyrazole-4-carboxamide], the inhibition of growth at 1 ppm was determined as 7% and the inhibition of growth at 16 ppm was found to be 9%.

Take `Cn1cc(C(=O)Nc2ccccc2-c2ccc(F)c(F)c2F)c(CF)n1` [Compound 3-14, N-(2′,3′,4′-trifluorobiphenyl-2-yl)-3-fluoromethyl-1-methyl-1H-pyrazole-4-carboxamide]: the inhibition of growth at 1 ppm is 3%, the inhibition of growth at 4 ppm turned out to be 11% and the inhibition of growth at 16 ppm amounted to 18%.

Another experiment deals with Puccinia recondita. Put plainly: Curative activity against brown rust of wheat caused by Puccinia recondita (greenhouse). It counts as in vivo. The note with it: single active compound, 0.25 ppm, control 90% infection. The method, then:
The expected efficacies of active compound combinations were determined using Colby's formula (Colby, S. R. “Calculating synergistic and antagonistic responses of herbicide combinations”, Weeds, 15, 20-22, 1967) and compared with the observed efficacies. Colby's formula: E=x+y−x·y/100 • E expected efficacy, expressed in % of the untreated control, when using the mixture of the active compounds A and B at the concentrations a and b; • x efficacy, expressed in % of the untreated control, when using the active compound A at the concentration a; • y efficacy, expressed in % of the untreated control, when using the active compound B at the concentration b. Micro Tests
The active compounds were separately or jointly prepared as a stock solution comprising 25 mg of active compound which was made up to 10 ml using a mixture of acetone and/or dimethyl sulfoxide and the emulsifier Uniperol® EL (wetting agent having emulsifying and dispersing action based on ethoxylated alkylphenols) in a volume ratio of solvent/emulsifier of 99 to 1. The mixture was then made up with water to 100 ml. This stock solution was diluted with the solvent/emulsifier/water mixture described to the concentration of active compound stated below.
Leaves of potted wheat seedlings were inoculated with a spore suspension of brown rust (Puccinia recondita). The pots were then placed in a chamber with high atmospheric humidity (90 to 95%) and 20 to 22° C. for 24 hours. During this time, the spores germinated and the germ tubes penetrated into the leaf tissue. The next day, the infected plants were sprayed to runoff point with the active compound solution described above at the active compound concentration stated below. After the spray coating had dried on, the test plants were cultivated in a greenhouse at temperatures between 20 and 22° C. and at 65 to 70% relative atmospheric humidity for 7 days. The extent of the rust fungus development on the leaves was then determined.
(§1) The visually determined percentages of infected leaf areas were converted into efficacies in % of the untreated control.
The efficacy (E) is calculated as follows using Abbot's formula: Abbot's formula: E=(1−α/β)·100 • α corresponds to the fungicidal infection of the treated plants in % and • β corresponds to the fungicidal infection of the untreated (control) plants in %
An efficacy of 0 means that the infection level of the treated plants corresponds to that of the untreated control plants; an efficacy of 100 means that the treated plants were not infected.
On to `Cn1cc(C(=O)Nc2ccccc2-c2cc(F)c(F)c(F)c2)c(C(F)F)n1` [Compound 3-9, N-(3′,4′,5′-trifluorobiphenyl-2-yl)-3-difluoromethyl-1-methyl-1H-pyrazole-4-carboxamide], for which the “Observed effect (%)” value is on record as 0%.

Still in this experiment, the particulars now being: single active compound, 1 ppm, control 90% infection.
As to `CCCCCCCCc1c(CC)nc2nc(N)nn2c1N` [7-5], the “Observed effect (%)” value was 0%.

As to `CCCCCCCCc1nc2ncnn2c(N)c1CC` [7-6], the “Observed effect (%)” value is listed as 0%.

For `CCc1nc2ncnn2c(N)c1CCC(C)CC(C)(C)C` (stereo not shown) [7-8], the “Observed effect (%)” value worked out at 0%.

Another experiment relates to Puccinia recondita. In words: Protective activity against Puccinia recondita on wheat (brown rust of wheat) (greenhouse). The experiment is classed as in vivo. The note with it: single active compound, 0.25 ppm, control 80% infection. Here is the method: The expected efficacies of active compound combinations were determined using Colby's formula (Colby, S. R. “Calculating synergistic and antagonistic responses of herbicide combinations”, Weeds, 15, 20-22, 1967) and compared with the observed efficacies. Colby's formula: E=x+y−x·y/100 • E expected efficacy, expressed in % of the untreated control, when using the mixture of the active compounds A and B at the concentrations a and b; • x efficacy, expressed in % of the untreated control, when using the active compound A at the concentration a; • y efficacy, expressed in % of the untreated control, when using the active compound B at the concentration b. Micro Tests […]
as §1
The efficacy (E) is calculated as follows using Abbot's formula: Abbot's formula: E=(1−α/β)·100 • α corresponds to the fungicidal infection of the treated plants in % and • β corresponds to the fungicidal infection of the untreated (control) plants in % […]
Leaves of potted wheat seedlings were sprayed to runoff point with an aqueous suspension having the active compound concentration stated below. […] The extent of the rust fungus development on the leaves was then determined visually.
In the case of `Cn1cc(C(=O)Nc2ccccc2-c2cc(F)c(F)c(F)c2)c(C(F)F)n1` [Compound 3-9, N-(3′,4′,5′-trifluorobiphenyl-2-yl)-3-difluoromethyl-1-methyl-1H-pyrazole-4-carboxamide], the “Observed effect (%)” value is reported as 50%.

The experiment is the same for the next values; noted with them: single active compound, 1 ppm, control 80% infection.
Turning to `Cc1nc2ncnn2c(N)c1-c1ccc(Cl)c(Cl)c1` [7-1], the “Observed effect (%)” value is on record as 0%.
